Laboratory results published in ChEMBL document CHEMBL5335794, “Discovery of novel multifunctional ligands targeting GABA transporters, butyrylcholinesterase, β-secretase, and amyloid β aggregation as potential treatment of Alzheimer's disease” (Eur J Med Chem, 2023).
pIC50, pKi: −log10 of the molar value.

What was measured:
[1] = target: Sodium- and chloride-dependent GABA transporter 1 (Mus musculus) (UniProt P31648); assay: Inhibition of NO 711 marker binding to mouse GAT1 assessed as residual activity at 100 uM by LC-ESI-MS/MS based competitive MS binding assay relative to control
[2] = target: Acetylcholinesterase (Electrophorus electricus) (UniProt O42275); assay: Inhibition of electric eel AChE using acetylthiocholine iodide as substrate at 10 uM preincubated for 5 mins followed by substrate addition and measured after 5 mins by DTNB reagent based Ellman's method relative to control; conditions: time 10.0 min
[3] = target: T1, GABA transporter 2 (Mus musculus) (UniProt P31651); assay: Inhibition of mouse GAT2 transfected in HEK293 cells assessed as reduction in [3H]-GABA uptake by measuring residual activity at 100 uM preincubated for 25 mins followed by [3H]-GABA addition and measured after 10 mins by liquid scintillation counting analysis relative to control; assay type: cell-based; conditions: time 35.0 min
T1 sequence (whole entry): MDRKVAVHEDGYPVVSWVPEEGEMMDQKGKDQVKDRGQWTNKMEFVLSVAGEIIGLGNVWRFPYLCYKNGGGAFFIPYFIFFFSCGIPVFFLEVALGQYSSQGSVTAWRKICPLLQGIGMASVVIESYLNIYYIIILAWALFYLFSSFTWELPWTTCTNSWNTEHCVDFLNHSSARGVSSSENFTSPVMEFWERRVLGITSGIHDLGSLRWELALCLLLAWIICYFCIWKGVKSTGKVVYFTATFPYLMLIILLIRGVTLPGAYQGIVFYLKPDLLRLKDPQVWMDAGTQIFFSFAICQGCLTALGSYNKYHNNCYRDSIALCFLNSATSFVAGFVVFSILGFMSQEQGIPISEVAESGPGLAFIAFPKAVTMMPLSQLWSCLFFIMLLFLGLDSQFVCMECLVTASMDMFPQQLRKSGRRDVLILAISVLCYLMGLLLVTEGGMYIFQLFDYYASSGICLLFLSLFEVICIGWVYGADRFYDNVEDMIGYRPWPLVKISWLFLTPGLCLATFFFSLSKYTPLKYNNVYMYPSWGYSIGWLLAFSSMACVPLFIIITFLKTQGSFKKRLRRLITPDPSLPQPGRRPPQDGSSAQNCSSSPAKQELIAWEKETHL

[4] = target: T2, GABA transporter 4 (Mus musculus) (UniProt P31650); assay: Inhibition of mouse GAT4 transfected in HEK293 cells assessed as reduction in [3H]-GABA uptake by measuring residual activity at 100 uM preincubated for 25 mins followed by [3H]-GABA addition and measured after 4 mins by liquid scintillation counting analysis relative to control; assay type: cell-based; conditions: time 29.0 min
T2 sequence (whole entry): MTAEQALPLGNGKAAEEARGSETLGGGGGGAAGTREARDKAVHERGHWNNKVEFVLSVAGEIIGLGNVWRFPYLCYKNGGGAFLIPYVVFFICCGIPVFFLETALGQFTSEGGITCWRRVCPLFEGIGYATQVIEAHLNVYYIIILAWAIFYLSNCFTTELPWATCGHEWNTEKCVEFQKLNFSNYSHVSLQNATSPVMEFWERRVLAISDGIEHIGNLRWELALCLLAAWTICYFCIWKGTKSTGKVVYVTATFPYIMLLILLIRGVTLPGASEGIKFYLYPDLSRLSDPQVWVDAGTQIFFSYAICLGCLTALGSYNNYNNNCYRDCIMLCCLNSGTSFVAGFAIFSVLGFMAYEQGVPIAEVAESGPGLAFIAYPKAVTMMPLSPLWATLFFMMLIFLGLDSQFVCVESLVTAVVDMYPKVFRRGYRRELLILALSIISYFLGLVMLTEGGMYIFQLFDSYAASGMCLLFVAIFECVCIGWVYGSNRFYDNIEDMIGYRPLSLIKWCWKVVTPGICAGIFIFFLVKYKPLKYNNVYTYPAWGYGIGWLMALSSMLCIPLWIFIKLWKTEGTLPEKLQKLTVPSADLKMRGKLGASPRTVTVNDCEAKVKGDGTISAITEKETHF

[5] = target: Cholinesterase (Equus caballus) (UniProt P81908); assay: Inhibition of equine serum BuChE using butyrylthiocholine iodide as substrate at 10 uM preincubated for 5 mins followed by substrate addition and measured after 5 mins by DTNB reagent based Ellman's method relative to control; conditions: time 10.0 min
[6] = target: Sodium- and chloride-dependent GABA transporter 1 (Mus musculus) (UniProt P31648); assay: Inhibition of mouse GAT1 transfected in HEK293 cells assessed as reduction in [3H]-GABA uptake by measuring residual activity at 100 uM preincubated for 25 mins followed by [3H]-GABA addition and measured after 4 mins by liquid scintillation counting analysis relative to control; assay type: cell-based; conditions: time 29.0 min
[7] = target: T3, Sodium- and chloride-dependent GABA transporter 1 (Mus musculus, UniProt P31648)
[8] = target: T4, GABA transporter 4 (Mus musculus, UniProt P31650)
T4 sequence (P31650 whole entry): T2 sequence (whole entry)

[9] = target: T5, GABA transporter 2 (Mus musculus, UniProt P31651)
T5 sequence (P31651 whole entry): T1 sequence (whole entry)

[10] = target: T3, Sodium- and chloride-dependent GABA transporter 1; assay: Inhibition of NO 711 marker binding to mouse GAT1 by LC-ESI-MS/MS based competitive MS binding assay
[11] = Inhibition of mouse GAT3 transfected in HEK293 cells assessed as reduction in [3H]-GABA uptake preincubated for 25 mins followed by [3H]-GABA addition and measured after 4 mins by liquid scintillation counting analysis; assay type: cell-based; conditions: HEK293; for IC50: read-out: pIC50 (converted)
[12] = target: T3, Sodium- and chloride-dependent GABA transporter 1; assay: Inhibition of mouse GAT1 transfected in HEK293 cells assessed as reduction in [3H]-GABA uptake preincubated for 25 mins followed by [3H]-GABA addition and measured after 4 mins by liquid scintillation counting analysis; assay type: cell-based; conditions: for IC50: read-out: pIC50 (converted)
[13] = target: T4, GABA transporter 4; assay: Inhibition of mouse GAT4 transfected in HEK293 cells assessed as reduction in [3H]-GABA uptake preincubated for 25 mins followed by [3H]-GABA addition and measured after 4 mins by liquid scintillation counting analysis; assay type: cell-based; conditions: for IC50: read-out: pIC50 (converted)
[14] = target: Cholinesterase (Equus caballus, UniProt P81908)
Description: Inhibition of equine serum BuChE using butyrylthiocholine iodide as substrate preincubated for 5 mins followed by substrate addition and measured after 5 mins by DTNB reagent based Ellman's method

[15] = target: T6, Beta-secretase 1 (Homo sapiens, UniProt P56817)
[16] = target: T5, GABA transporter 2; assay: Inhibition of mouse GAT2 transfected in HEK293 cells assessed as reduction in [3H]-GABA uptake preincubated for 25 mins followed by [3H]-GABA addition and measured after 10 mins by liquid scintillation counting analysis; assay type: cell-based; conditions: for IC50: read-out: pIC50 (converted)
[17] = target: Amyloid-beta precursor protein (Homo sapiens) (UniProt P05067); assay: Inhibition of amyloid beta42 (unknown origin) aggregation expressed in Escherichia coli BL21 (DE3) at 10 uM measured every 5 mins by ThT fluorescence based assay relative to control
[18] = target: Amyloid-beta precursor protein (Homo sapiens) (UniProt P05067); assay: Inhibition of amyloid beta40 (unknown origin) aggregation at 10 uM measured every 5 mins by ThT fluorescence based assay relative to control
[19] = target: T6, Beta-secretase 1; conditions: dose 50.0 µM, time 60.0 min

Chain of Cholinesterase (P81908 whole entry): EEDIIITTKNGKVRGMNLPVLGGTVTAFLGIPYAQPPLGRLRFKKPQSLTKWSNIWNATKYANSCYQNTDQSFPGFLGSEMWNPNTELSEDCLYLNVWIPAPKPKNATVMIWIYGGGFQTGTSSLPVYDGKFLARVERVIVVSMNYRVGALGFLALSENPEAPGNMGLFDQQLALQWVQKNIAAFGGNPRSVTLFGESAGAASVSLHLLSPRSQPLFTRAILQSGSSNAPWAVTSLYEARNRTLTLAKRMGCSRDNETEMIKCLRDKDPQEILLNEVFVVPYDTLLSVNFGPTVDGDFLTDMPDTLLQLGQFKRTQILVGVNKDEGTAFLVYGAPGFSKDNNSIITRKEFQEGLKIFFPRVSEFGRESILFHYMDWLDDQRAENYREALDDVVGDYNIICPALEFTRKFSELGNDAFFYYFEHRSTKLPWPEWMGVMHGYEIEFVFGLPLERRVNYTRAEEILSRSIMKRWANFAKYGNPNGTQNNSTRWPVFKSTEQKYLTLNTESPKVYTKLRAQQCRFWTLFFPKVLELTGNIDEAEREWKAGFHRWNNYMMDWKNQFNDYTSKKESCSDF
Chain of Acetylcholinesterase (Electrophorus electricus) (O42275 24-633 limits assumed): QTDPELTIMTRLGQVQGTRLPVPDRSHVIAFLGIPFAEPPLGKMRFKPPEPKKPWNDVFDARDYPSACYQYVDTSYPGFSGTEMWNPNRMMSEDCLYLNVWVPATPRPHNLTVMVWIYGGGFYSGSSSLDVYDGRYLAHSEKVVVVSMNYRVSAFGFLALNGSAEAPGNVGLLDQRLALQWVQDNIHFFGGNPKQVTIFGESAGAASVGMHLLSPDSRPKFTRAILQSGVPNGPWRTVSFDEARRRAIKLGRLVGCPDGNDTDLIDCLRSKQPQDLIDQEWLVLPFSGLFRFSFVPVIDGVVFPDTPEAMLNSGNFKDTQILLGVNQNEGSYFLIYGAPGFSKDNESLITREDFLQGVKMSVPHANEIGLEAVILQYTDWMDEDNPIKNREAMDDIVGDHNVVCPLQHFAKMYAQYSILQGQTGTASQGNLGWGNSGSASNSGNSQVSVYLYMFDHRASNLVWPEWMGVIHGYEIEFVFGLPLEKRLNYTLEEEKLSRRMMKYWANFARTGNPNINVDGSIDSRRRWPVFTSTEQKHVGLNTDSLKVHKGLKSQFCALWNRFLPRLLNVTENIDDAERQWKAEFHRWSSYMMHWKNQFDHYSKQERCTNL
T6 sequence (P56817 whole entry): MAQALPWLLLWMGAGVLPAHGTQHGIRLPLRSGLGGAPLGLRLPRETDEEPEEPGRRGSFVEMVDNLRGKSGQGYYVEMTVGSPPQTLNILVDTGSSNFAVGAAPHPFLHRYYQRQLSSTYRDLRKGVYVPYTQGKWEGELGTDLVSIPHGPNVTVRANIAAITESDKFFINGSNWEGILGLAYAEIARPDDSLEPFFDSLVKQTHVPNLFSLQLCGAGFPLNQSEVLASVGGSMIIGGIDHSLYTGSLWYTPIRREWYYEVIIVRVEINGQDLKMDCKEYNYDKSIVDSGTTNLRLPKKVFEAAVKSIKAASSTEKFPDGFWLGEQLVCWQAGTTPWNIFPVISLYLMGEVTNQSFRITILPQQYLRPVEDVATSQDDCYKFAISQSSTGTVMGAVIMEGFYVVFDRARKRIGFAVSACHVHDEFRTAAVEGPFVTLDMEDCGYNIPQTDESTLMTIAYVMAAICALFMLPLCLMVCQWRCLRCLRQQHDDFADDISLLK
Chain of Amyloid-beta precursor protein (Homo sapiens) (P05067 whole entry): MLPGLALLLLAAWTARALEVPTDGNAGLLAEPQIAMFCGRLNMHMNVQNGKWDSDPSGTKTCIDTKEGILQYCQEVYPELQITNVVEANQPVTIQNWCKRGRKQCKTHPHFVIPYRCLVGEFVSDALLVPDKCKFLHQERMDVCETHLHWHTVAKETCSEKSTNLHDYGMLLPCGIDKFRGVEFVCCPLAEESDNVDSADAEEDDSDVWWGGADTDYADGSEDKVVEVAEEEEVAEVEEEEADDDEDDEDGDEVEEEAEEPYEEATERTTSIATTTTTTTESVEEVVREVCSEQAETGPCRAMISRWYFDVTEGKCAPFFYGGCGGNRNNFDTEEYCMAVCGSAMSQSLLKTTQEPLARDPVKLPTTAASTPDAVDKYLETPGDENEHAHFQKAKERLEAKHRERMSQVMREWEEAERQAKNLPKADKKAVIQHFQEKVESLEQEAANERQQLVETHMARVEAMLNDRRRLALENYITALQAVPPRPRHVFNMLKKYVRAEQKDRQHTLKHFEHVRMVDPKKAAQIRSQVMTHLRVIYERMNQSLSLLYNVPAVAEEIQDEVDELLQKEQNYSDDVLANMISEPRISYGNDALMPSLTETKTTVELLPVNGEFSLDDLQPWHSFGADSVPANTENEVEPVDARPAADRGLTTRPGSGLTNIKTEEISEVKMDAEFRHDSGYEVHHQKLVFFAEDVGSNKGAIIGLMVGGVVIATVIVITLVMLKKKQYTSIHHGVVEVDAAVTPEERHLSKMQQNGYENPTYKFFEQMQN
Chain of Cholinesterase (Equus caballus) (P81908 whole entry): as the sequence (P81908 whole entry) above

Row | SMILES | inhibition [2] [%] | Activity [3] [%] | pKi [10] | IC50 [11] [µM] | IC50 [13] [µM] | pIC50 [14] | IC50 [12] [µM] | other results
1 | O=C(NC1CCN(C(c2ccccc2)c2ccccc2)CC1)C1CC2c3ccccc3NC2CN1 (stereo not given) | < 10 | 57 |  |  |  |  |  | Activity [1]: 73%; Activity [4]: 89%; inhibition [5]: < 10%; Activity [6]: 87%
2 | CN(CCC=C(c1ccccc1)c1ccccc1)C(CO)C(=O)NCc1ccccc1Cl (stereo not given) |  |  |  |  |  |  |  | pIC50 [7]: 4.72; pIC50 [8]: 5.00; pIC50 [9]: 4.89
3 | CN(CC/C=C/c1ccccc1-c1ccc(Cl)cc1Cl)C(CCN)C(=O)NCc1ccccc1 (stereo not given) |  | 18 | 4.55 | 6.61 | 7.41 | 5.84 |  | pIC50 ([12]; read-out: IC50): 5.26; pIC50 [15]: 5.27
4 | CN(CCOCCN1c2ccccc2Sc2ccccc21)C(CCN)C(=O)NCc1ccccc1Cl (stereo not given) | 14 |  | 4.24 | 6.17 | 8.71 | 6.39 | 12.6 | IC50 [16]: 6.61 µM; inhibition [17]: 27.1%; inhibition [18]: 74%; pIC50 [15]: 5.29
5 | CN(CCOCCn1c2ccccc2c2ccccc21)C(CCN)C(=O)NCc1ccccc1Cl (stereo not given) | < 10 |  | 4.03 | 12.9 | 9.33 | 6.69 | 19.5 | IC50 [16]: 8.32 µM; inhibition [19]: 79%; inhibition [17]: 30.2%; inhibition [18]: 92.4%
6 | CN(CCC=C(c1ccccc1)c1ccccc1)C(=O)C1Cc2c([nH]c3ccccc23)CN1 (stereo not given) | 38 | 55 | 4.10 | 4.07 |  | 5.50 | 12 | pIC50 ([11]; read-out: IC50): 5.39; pIC50 ([13]; read-out: IC50): 5.20
7 | O=C(O)[C@@H]1CCCN(CCOCCN2c3ccccc3Sc3ccccc32)C1 |  |  |  |  |  |  |  | pIC50 [7]: 6.52
8 | CN(CC/C=C/c1ccccc1-c1ccc(Cl)cc1Cl)C(CCO)C(=O)NCc1ccccc1 (stereo not given) |  | 13 |  | 7.76 | 7.41 |  |  | inhibition [19]: 52%; Activity [1]: 49%; inhibition [5]: 47%; Activity [6]: 45%
9 | CC(CC(=O)O)NCCOCCN1c2ccccc2Sc2ccccc21 (stereo not given) |  |  |  |  |  |  |  | pIC50 [7]: 5.05
10 | CN(CCOCCN1c2ccccc2Sc2ccccc21)C(CCN)C(=O)NCc1ccccc1 (stereo not given) | < 10 |  | 4.17 | 10 | 15.1 | 6.46 | 15.8 | pIC50 ([16]; read-out: IC50): 5.52; inhibition [17]: 34.9%; inhibition [18]: 96.7%; pIC50 [15]: 4.64
11 | CN(CCOCCN1c2ccccc2Sc2ccccc21)C(CCN)C(=O)NCc1ccc(F)cc1 (stereo not given) | < 10 |  | 4.11 | 8.32 | 14.1 | 5.99 | 14.8 | IC50 [16]: 10.2 µM; inhibition [17]: 23.9%; inhibition [18]: 74.7%; pIC50 [15]: 5.27
12 | CN(CCC=C(c1ccccc1)c1ccccc1)C(CN)C(=O)NCc1ccccc1Cl (stereo not given) |  |  |  |  |  |  |  | pIC50 [7]: 4.89; pIC50 [8]: 5.05; pIC50 [9]: 5.22
13 | CN(CCOCCN1c2ccccc2Sc2ccccc21)C(CCO)C(=O)NCc1ccc(Cl)cc1 (stereo not given) | < 10 | 55 |  | 7.94 | 20.9 | 5.37 |  | inhibition [19]: 44%; Activity [1]: 96%; Activity [6]: 57%
14 | Cc1ccsc1C(=CCCN(C)[C@H]1CCCC[C@H]1C(=O)O)c1sccc1C |  |  |  |  |  |  |  | pIC50 [9]: 4.68
